Consider 33 compounds from patent publication US10196364B2, “Pyrimidine carboxamides as sodium channel blockers” (Purdue Pharma L.P., priority 2013, dated 2019).

Molecules are shown by their SMILES.

human Nav1.7, sequence (Q15858 1-1977 isoform Q15858-3): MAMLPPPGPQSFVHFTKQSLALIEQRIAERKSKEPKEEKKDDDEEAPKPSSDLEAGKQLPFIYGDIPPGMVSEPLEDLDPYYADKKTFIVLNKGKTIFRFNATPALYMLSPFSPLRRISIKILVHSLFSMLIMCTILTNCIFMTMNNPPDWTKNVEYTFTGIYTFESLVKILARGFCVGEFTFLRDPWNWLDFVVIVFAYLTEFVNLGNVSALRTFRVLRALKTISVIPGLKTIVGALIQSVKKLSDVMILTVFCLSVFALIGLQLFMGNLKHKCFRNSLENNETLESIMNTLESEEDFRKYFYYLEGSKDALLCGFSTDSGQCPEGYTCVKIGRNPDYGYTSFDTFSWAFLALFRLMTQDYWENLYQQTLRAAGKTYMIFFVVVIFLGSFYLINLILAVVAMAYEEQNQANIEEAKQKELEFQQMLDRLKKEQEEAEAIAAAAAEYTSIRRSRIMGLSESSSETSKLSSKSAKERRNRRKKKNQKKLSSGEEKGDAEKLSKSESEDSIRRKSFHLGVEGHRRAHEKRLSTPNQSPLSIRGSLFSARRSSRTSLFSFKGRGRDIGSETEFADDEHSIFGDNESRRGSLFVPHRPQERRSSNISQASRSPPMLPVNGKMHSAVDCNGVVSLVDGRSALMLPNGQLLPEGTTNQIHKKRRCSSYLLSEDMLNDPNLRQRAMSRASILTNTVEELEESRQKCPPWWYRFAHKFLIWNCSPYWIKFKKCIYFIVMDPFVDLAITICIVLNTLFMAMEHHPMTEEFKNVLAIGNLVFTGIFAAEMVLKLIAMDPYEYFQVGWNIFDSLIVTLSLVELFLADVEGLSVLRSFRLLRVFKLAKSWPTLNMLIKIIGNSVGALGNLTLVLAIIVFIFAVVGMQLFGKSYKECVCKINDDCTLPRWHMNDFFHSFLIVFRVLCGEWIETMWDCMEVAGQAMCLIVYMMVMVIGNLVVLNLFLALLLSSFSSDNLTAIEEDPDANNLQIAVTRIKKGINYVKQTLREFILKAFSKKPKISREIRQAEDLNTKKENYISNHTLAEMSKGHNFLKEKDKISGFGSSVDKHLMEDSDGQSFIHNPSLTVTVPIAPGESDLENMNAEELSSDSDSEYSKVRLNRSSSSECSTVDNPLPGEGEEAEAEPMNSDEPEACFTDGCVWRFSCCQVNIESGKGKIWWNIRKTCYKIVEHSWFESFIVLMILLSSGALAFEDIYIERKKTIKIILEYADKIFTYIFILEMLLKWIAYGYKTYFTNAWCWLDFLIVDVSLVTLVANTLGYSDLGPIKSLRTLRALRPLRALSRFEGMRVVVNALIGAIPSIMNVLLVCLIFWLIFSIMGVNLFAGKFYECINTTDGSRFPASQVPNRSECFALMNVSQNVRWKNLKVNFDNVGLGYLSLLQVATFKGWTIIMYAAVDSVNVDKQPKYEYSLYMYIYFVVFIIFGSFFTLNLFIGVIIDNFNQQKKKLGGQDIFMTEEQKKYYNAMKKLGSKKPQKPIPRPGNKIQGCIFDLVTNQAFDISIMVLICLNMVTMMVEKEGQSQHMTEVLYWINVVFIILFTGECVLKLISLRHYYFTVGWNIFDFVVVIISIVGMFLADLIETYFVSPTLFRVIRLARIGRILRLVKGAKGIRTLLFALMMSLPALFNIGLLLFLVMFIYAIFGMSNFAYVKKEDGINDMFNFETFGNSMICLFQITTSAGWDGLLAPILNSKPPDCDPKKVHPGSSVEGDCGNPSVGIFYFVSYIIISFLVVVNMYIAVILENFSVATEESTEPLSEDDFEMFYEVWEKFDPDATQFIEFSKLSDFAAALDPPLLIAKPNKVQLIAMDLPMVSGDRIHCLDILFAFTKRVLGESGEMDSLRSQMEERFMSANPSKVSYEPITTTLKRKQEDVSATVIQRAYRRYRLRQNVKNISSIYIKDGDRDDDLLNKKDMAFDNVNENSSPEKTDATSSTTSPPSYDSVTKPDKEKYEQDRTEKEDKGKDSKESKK

This assay addresses human Nav1.7 (Homo sapiens, UniProt Q15858). Put plainly: FLIPR sodium dye assay (CoroNa Green AM Na+ dye, primary fluorescence assay) in recombinant Nav1.7/HEK293 cells. To be noted: Table 6; CoroNa Green AM Na+ dye primary fluorescence assay; read-out: Nav1.7 Activity (μM) FLIPR assay IC50. Format: cell-based.
The IC50 is the midpoint of a concentration-inhibition curve. For `NC(=O)c1cc(N[C@H]2CCNC2=O)nc(-c2ccc(Nc3ccc(F)cc3)c(N)c2)n1` [Cpd No. 212, (S)-2-(3-amino-4-((4-fluoro-phenyl)amino)phenyl)-6-((2-oxopyrrolidin-3-yl)amino)-pyrimidine-4-carboxamide], the 50% inhibitory concentration (IC50) turned out to be 4.73 µM.

For the compound `NC(=O)c1cc(O[C@H]2CCNC2=O)nc(C2CCC(Oc3ccc(C(F)(F)F)cn3)CC2)n1` (stereo partly drawn) [Cpd No. 213], the IC50 came to 0.69 µM.

Turning to `NC(=O)c1cc(N[C@H]2CCNC2=O)nc(C2CCC(Oc3ccc(C(F)(F)F)cn3)CC2)n1` (stereo partly drawn) [Cpd No. 214, (S)-6-((2-oxopyrrolidin-3-yl)amino)-2-(4-((5-(trifluoromethyl)pyridin-2-yl)oxy)cyclohexyl)pyrimnidine-4-carboxamide], the half-inhibitory concentration (IC50) amounted to 0.93 µM.

Turning to `C[C@H](Nc1cc(C(N)=O)nc(Oc2ccc(F)cc2)n1)C(N)=O` [compound 104, (S)-6-((1-amino-1-oxopropan-2-yl)amino)-2-(4-fluorophenoxy)pyrimidine-4-carboxamide], the IC50 is greater than 20 µM.

Consider `C[C@H](Nc1cc(C(N)=O)nc(-c2cc(F)c(OCc3ccccc3)cc2F)n1)C(N)=O` [compound 105, (S)-6-((1-amino-1-oxopropan-2-yl)amino)-2-(4-(benzyloxy)-2,5-difluorophenyl)pyrimidine-4-carboxamide], for which the half-inhibitory concentration (IC50) is greater than 20 µM.

As for `C[C@H](Nc1cc(C(N)=O)nc(N2CC3CC2CN3c2ccc(F)cc2)n1)C(N)=O` (stereo partly drawn) [compound 106, 6-(((S)-1-amino-1-oxopropan-2-yl)amino)-2-(5-(4-fluorophenyl)-2,5-diazabicyclo[2.2.1]heptan-2-yl)pyrimidine-4-carboxamide], the IC50 fell in the range of 10 to 20 µM.

`C[C@H](Nc1cc(C(N)=O)nc(N2CCC(Cc3ccccc3)CC2)n1)C(N)=O` [compound 107, (S)-6-((1-amino-1-oxopropan-2-yl)amino)-2-(4-benzylpiperidin-1-yl)pyrimidine-4-carboxamide]: the half-inhibitory concentration (IC50) is 1.95 µM.

As to `NC(=O)c1cc(N2CCNCC2C(N)=O)nc(-c2ccc(Oc3ccc(Cl)cc3F)cc2)n1` (stereo not drawn) [compound 108, 6-(2-carbamoylpiperazin-1-yl)-2-(4-(4-chloro-2-fluorophenoxy)phenyl)pyrimnidine-4-carboxamide], the half-maximal inhibitory concentration (IC50) is 0.29 µM.

On to `C[C@H](Nc1cc(C(N)=O)nc(-c2ccc(Oc3ccc4c(c3)CCC4)cc2)n1)C(N)=O` [compound 109, (S)-6-((1-amino-1-oxopropan-2-yl)amino)-2-(4-((2,3-dihydro-1H-inden-5-yl)oxy)phenyl)pyrimidine-4-carboxamide], for which the IC50 is 0.11 µM.

As for `C[C@@H](Nc1cc(C(N)=O)nc(-c2ccc(Oc3ccc(C(C)(C)C)cc3)cc2)n1)C(N)=O` [compound 110, (R)-6-((1-amino-1-oxopropan-2-yl)amino)-2-(4-(4-(tert-butyl)phenoxy)phenyl)pyrimidine-4-carboxamide], the IC50 is 0.2 µM.

As for `C[C@H](Nc1cc(C(N)=O)nc(-c2ccc(Oc3ccc(F)cc3)c(C(N)=O)c2)n1)C(N)=O` [compound 111, (S)-6-((1-amino-1-oxopropan-2-yl)amino)-2-(3-carbamoyl-4-(4-fluorophenoxy)phenyl)pyrimidine-4-carboxamide], the IC50 came to 7.88 µM.

For `CC(C)N1CCN(c2cc(C(N)=O)nc(-c3ccc(Oc4ccc(F)cc4)cc3)n2)C(C(N)=O)C1` (stereo not drawn) [compound 112, 6-(2-carbamoyl-4-isopropylpiperazin-1-yl)-2-(4-(4-fluorophenoxy)phenyl)pyrimidine-4-carboxamide], the IC50 came to 0.38 µM.

For `N#Cc1ccc(Oc2ccc(-c3nc(N[C@H]4CCNC4=O)cc(C(N)=O)n3)cc2)cc1` [compound 113, (S)-2-(4-(4-cyanophenoxy)phenyl)-6-((2-oxopyrrolidin-3-yl)amino)pyrimidine-4-carboxamide], the IC50 amounted to 0.29 µM.

Turning to `NC(=O)c1cc(N[C@H]2CCNC2=O)nc(-c2ccc(Oc3ccc(C(F)(F)F)cc3)cc2)n1` [compound 114, (S)-6-((2-oxopyrrolidin-3-yl)amino)-2-(4-(4-(trifluoromethyl)phenoxy)phenyl)pyrimidine-4-carboxamide], the IC50 was 0.33 µM.

For the compound `NC(=O)c1cc(N[C@H]2CCNC2=O)nc(-c2ccc(Oc3ccc4c(c3)OCO4)cc2)n1` [compound 115, (S)-2-(4-(benzo[d][1,3]dioxol-5-yloxy)phenyl)-6-((2-oxopyrrolidin-3-yl)amino)pyrimnidine-4-carboxamide], the IC50 came out at 0.3 µM.

Consider `NC(=O)c1cc(N[C@H]2CCNC2=O)nc(-c2ccc(Oc3ccc(OC(F)(F)F)cc3)cc2)n1` [compound 116, (S)-6-((2-oxopyrrolidin-3-yl)amino)-2-(4-(4-(trifluoromethoxy)phenoxy)phenyl)pyrimidine-4-carboxamide], for which the IC50 was found to be 0.18 µM.

Regarding `NC(=O)c1cc(O[C@H]2CCNC2=O)nc(-c2ccc(Oc3ccc(F)cc3)cc2)n1` [compound 118, (S)-2-(4-(4-fluorophenoxy)phenyl)-6-((2-oxopyrrolidin-3-yl)oxy)pyrimidine-4-carboxamide], the concentration for half-maximal inhibition (IC50) was 0.35 µM.

In the case of `NC(=O)c1cc(OCCN2CCCC2=O)nc(-c2ccc(Oc3ccc(C(F)(F)F)cc3)cc2)n1` [compound 119, 6-(2-(2-oxopyrrolidin-1-yl)ethoxy)-2-(4-(4-(trifluoromethyl)phenoxy)phenyl)pyrimidine-4-carboxamide], the half-inhibitory concentration (IC50) is 0.12 µM.

For the compound `CC(C)(CO)[C@H](Oc1cc(C(N)=O)nc(-c2ccc(Oc3ccc(C(F)(F)F)cc3)cc2)n1)C(N)=O` [compound 120, (S)-6-((1-amino-4-hydroxy-3,3-dimethyl-1-oxobutan-2-yl)oxy)-2-(4-(4-(trifluoromethyl)phenoxy)phenyl) pyrimidine-4-carboxamide], the IC50 was found to be 0.76 µM.

As to `NC(=O)c1cc(O[C@@H](CO)C(N)=O)nc(-c2ccc(Oc3ccc(C(F)(F)F)cc3)cc2)n1` [compound 121, (S)-6-((1-amino-3-hydroxy-1-oxopropan-2-yl)oxy)-2-(4-(4-(trifluoromethyl)phenoxy)phenyl)pyrimidine-4-carboxamide], the concentration for half-maximal inhibition (IC50) is 1.01 µM.

`C=CCN1CC[C@H](Oc2cc(C(N)=O)nc(-c3ccc(Oc4ccc(F)cc4)cc3)n2)C1=O` [compound 122, (S)-6-((1-allyl-2-oxopyrrolidin-3-yl)oxy)-2-(4-(4-fluorophenoxy)phenyl)pyrimidine-4-carboxamide]: the half-maximal inhibitory concentration (IC50) was 0.8 µM.

As to `NC(=O)c1cc(O[C@H]2CCN(C[C@H](O)CO)C2=O)nc(-c2ccc(Oc3ccc(F)cc3)cc2)n1` [compound 123, 6-(((S)-1-((S)-2,3-dihydroxypropyl)-2-oxopyrrolidin-3-yl)oxy)-2-(4-(4-fluorophenoxy)phenyl)pyrimidine-4-carboxamide], the half-inhibitory concentration (IC50) is 0.67 µM.

Consider `NC(=O)c1cc(O[C@H](C(N)=O)C(O)CO)nc(-c2ccc(Oc3ccc(C(F)(F)F)cc3)cc2)n1` (stereo partly drawn) [compound 124, 6-(((2S)-1-amino-3,4-dihydroxy-1-oxobutan-2-yl)oxy)-2-(4-(4-(trifluoromethyl)phenoxy)phenyl)pyrimidine-4-carboxamide], for which the half-inhibitory concentration (IC50) was 0.7 µM.

With `NC(=O)c1cc(N2CCC[C@H]2C(N)=O)nc(-c2ccc(Oc3ccc(OC(F)(F)F)cc3)cc2)n1` [compound 125, (S)-6-(2-carbamoylpyrrolidin-1-yl)-2-(4-(4-(trifluoromethoxy)phenoxy)phenyl)pyrimnidine-4-carboxamide], the half-maximal inhibitory concentration (IC50) turned out to be 0.28 µM.

For `NC(=O)c1cc(-c2ccc(Oc3ccc(OC(F)(F)F)cc3)cc2)nc(N2CCC[C@H]2C(N)=O)n1` [compound 126, (S)-2-(2-carbamoylpyrrolidin-1-yl)-6-(4-(4-(trifluoromethoxy)phenoxy)phenyl)pyrimidine-4-carboxamide], the IC50 was greater than 20 µM.

For `NC(=O)c1cc(OCCN2CCNC2=O)nc(-c2ccc(Oc3ccc(C(F)(F)F)cc3)cc2)n1` [compound 127, 6-(2-(2-oxoimidazolidin-1-yl)ethoxy)-2-(4-(4-(trifluoromethyl)phenoxy)phenyl) pyrimnidine-4-carboxamide], the half-maximal inhibitory concentration (IC50) turned out to be 0.26 µM.

Consider `C[C@H](Nc1cc(C(N)=O)nc(-c2ccc(Oc3ccc(C#N)cc3)cc2C(F)(F)F)n1)C(N)=O` [compound 128, (S)-6-((1-amino-1-oxopropan-2-yl)amino)-2-(4-(4-cyanophenoxy)-2-(trifluoromethyl)phenyl)pyrimidine-4-carboxamide], for which the IC50 was greater than 20 µM.

`C[C@H](Oc1cc(C(N)=O)nc(-c2ccc(Oc3ccc4c(c3)CCC4)cc2)n1)C(N)=O` [compound 129, (S)-6-((1-amino-1-oxopropan-2-yl)oxy)-2-(4-((2,3-dihydro-1H-inden-5-yl)oxy)phenyl)pyrimidine-4-carboxamide]: the half-inhibitory concentration (IC50) amounted to 0.26 µM.

Turning to `COCc1cc(Oc2ccc(F)cc2)ccc1-c1nc(N[C@@H](C)C(N)=O)cc(C(N)=O)n1` [compound 130, (S)-6-((1-amino-1-oxopropan-2-yl)amino)-2-(4-(4-fluorophenoxy)-2-(methoxymethyl)phenyl)pyrimidine-4-carboxamide], the IC50 is 1.77 µM.

With `CN1CCC(Nc2cc(C(N)=O)nc(-c3ccc(Oc4ccc(F)cc4)cc3)n2)C1=O` (stereo not drawn) [compound 131, 2-(4-(4-fluorophenoxy)phenyl)-6-((1-methyl-2-oxopyrrolidin-3-yl)amino)pyrimnidine-4-carboxamide], the concentration for half-maximal inhibition (IC50) came out at 0.22 µM.

For the compound `NC(=O)c1cc(N2CC[C@H]2C(N)=O)nc(-c2ccc(Oc3ccc(F)cc3)cc2)n1` [compound 132, (S)-6-(2-carbamoylazetidin-1-yl)-2-(4-(4-fluorophenoxy)phenyl)pyrimidine-4-carboxamide], the IC50 was found to be 0.28 µM.

With `NC(=O)c1cc(N[C@H]2CCNC2=O)nc(N2C3CCC2CC(Oc2ccc(C(F)(F)F)cc2)C3)n1` (stereo partly drawn) [compound 135, 6-(((S)-2-oxopyrrolidin-3-yl)amino)-2-(3-(4-(trifluoromethyl)phenoxy)-8-azabicyclo[3.2.1]octan-8-yl)pyrimidine-4-carboxamide], the half-inhibitory concentration (IC50) was 1.62 µM.

Regarding `NC(=O)c1cc(N[C@H]2CCNC2=O)nc(N2CC3CC2CN3Cc2ccc(OC(F)(F)F)cc2)n1` (stereo partly drawn) [compound 136, 6-(((S)-2-oxopyrrolidin-3-yl)amino)-2-(5-(4-(trifluoromethoxy)benzyl)-2,5-diazabicyclo[2.2.1]heptan-2-yl)pyrimidine-4-carboxamide], the IC50 was greater than 20 µM.
